Test results from patent publication US20250020635A1, “ASSAY METHODS AND USES THEREOF FOR SCREENING ALZHEIMER'S DISEASE TREATMENT COMPOUNDS” (priority 2023, published 2025).
Read-outs that look alike come from different tables or passages of the source.

What was measured:
PLCγ2-HiBit = target: T1, PLCγ2-HiBit (Homo sapiens, UniProt P16885); test: Cellular thermal shift assay (SplitLuc CETSA), PLCγ2-HiBit in HMC3 cells; format: cell-based; conditions: for PLCγ2-HiBit %, percent luminescence at highest dose compared to control (DMSO): 100 μM
T1 construct: expressed in transfected cells; host or cells: HMC3 cells
T1 sequence (P16885 1-1265): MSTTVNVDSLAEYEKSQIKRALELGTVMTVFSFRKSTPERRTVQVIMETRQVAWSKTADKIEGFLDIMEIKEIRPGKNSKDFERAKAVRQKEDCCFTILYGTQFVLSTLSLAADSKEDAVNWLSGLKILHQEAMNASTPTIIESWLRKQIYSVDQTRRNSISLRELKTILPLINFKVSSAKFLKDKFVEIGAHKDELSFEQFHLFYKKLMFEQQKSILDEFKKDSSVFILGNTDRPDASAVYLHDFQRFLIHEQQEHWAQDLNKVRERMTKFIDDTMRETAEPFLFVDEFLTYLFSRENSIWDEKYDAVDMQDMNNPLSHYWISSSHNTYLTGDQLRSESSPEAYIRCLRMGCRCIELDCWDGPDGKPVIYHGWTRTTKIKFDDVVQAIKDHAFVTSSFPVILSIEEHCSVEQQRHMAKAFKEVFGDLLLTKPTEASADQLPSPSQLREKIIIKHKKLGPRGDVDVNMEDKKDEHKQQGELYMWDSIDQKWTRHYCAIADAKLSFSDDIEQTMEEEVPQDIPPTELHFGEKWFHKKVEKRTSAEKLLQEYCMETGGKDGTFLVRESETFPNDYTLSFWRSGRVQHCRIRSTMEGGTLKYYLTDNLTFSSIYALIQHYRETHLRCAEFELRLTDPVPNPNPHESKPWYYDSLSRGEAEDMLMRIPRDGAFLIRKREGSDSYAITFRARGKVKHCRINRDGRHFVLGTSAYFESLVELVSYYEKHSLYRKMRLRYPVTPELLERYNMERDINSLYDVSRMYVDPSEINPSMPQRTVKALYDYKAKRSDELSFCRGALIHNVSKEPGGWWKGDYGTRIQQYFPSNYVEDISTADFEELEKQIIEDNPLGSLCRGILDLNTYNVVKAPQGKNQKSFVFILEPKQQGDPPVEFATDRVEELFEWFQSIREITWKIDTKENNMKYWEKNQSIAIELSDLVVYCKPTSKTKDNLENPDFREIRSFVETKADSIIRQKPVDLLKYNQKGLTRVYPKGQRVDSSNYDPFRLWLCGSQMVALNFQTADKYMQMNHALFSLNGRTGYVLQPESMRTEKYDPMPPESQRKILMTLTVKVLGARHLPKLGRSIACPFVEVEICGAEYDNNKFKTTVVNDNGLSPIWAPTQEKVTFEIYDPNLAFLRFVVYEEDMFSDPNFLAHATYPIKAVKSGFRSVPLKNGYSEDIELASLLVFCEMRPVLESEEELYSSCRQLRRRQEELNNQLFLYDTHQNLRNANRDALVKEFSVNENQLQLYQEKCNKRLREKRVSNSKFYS
Text: These compounds have been evaluated using a wide variety of assay classes namely target engagement utilizing cellular thermal shift assay (CETSA),^34 affinity selection mass spectrometry (ASMS),^35 biochemical activity employing the fluorogenic probe XY-69,^36 and cellular activity testing for phagocytosis. Cellular Thermal Shift Assays (CETSA) assess cellular target engagement by quantifying changes in protein thermal stability upon ligand binding to endogenous proteins in intact cells.^34 For SAR studies, a split Nano Luciferase (SplitLuc CETSA) version of the assay was utilized to provide sufficient throughput.^37,38 HMC3 cells were stably transfected with PLCγ2-HiBit to enable protein expression in a physiologically relevant cellular context. The thermal stability of this HiBit-labeled protein in intact cells was measured in the following two formats. In the initial screen, using 96-well plates, cells were treated with FBS analogs at a single concentration (100 μM) at 37° C. for 60 min and then exposed to a 3-minute isothermal heating step at 45.9° C. (experimentally determined Tm of PLCγ2-HiBit). Luminescence detection was then conducted with the Nano-Glo HiBit Lytic detection kit (Promega, Cat. N3040).^38 Compound treatment was performed in triplicate, and raw signals were normalized to the mean of the controls (in the same plate) as % of control. When the difference in compound-treated cells >control mean+3SD, the compound was considered positive and selected for further testing with dose-response CETSA. In the dose response CETSA, cells were treated with decreasing concentrations from 100 μM with 1:3 serial dilutions to generate an 8-point curve. An AC50 was calculated with the % of control data using a four-parameter logistic curve regression model, and the percent luminescence remaining at the highest concentration is also reported for the compounds when the difference from the DMSO control is greater than 3× the standard deviation (SD). Otherwise, an AC50 was not calculated.

[1] = Kinetic solubility in pH 7.4 phosphate buffer; format: physicochemical
Protocol: (§1) Physicochemical and ADME properties were determined using the following assays: microsomal stability intrinsic clearance (Clint) in mouse liver microsomal solution, MDCK permeability (Papp), protein binding (fu) in mouse plasma, and kinetic solubility in pH 7.4 phosphate buffer (Table 7).

His-PLCγ2 protein = target: T2, His-PLCγ2 protein (Homo sapiens, UniProt P16885); test: Affinity selection mass spectrometry (ASMS); format: binding; conditions: dose range 100-0.05 μM, PLCγ2 400 nM
T2 sequence (P16885 1-1265): T1 sequence (P16885 1-1265)
Protocol: Using a dose range of 100-0.05 μM in 384 well low-volume polypropylene microtiter plates, a solution of PLCγ2 (final concentration 400 nM) was transferred to biochip arrays functionalized with a Tris-Ni-NTA-presenting self-assembled monolayer to immobilize the His-tagged protein. The arrays were incubated for 90 min in a humidified chamber to prevent evaporation and allow for specific immobilization of the His-PLCγ2 protein, along with any bound small molecules. The arrays were purified by a rapid <3 second gentle wash step with deionized ultra-filtered water and dried with compressed air. ASMS was performed using the reflector positive mode on an Aβ Sciex TOF-TOF 5800 System (Aβ Sciex, Framingham, MA).

HiBit only = test: Cellular thermal shift assay (CETSA), HiBit only control; format: cell-based, human; conditions: for HiBit only %, percent luminescence at highest dose with HiBit only compared to control (DMSO): 100 μM
[2] = Microsomal stability intrinsic clearance; format: in vitro ADME; conditions: mouse liver microsomes
Protocol: as §1

[3] = Protein binding in mouse plasma; format: in vitro ADME
Protocol: as §1

MDCK = MDCK permeability; format: in vitro ADME; conditions: estimate of intestinal absorption
Protocol: as §1

SMILES: Cc1cc(C)c(S(=O)(=O)Nc2cccc(C(F)(F)F)c2)c(C)c1 [Compound 1, 2,4,6-trimethyl-N-(meta-3-trifluoromethyl-phenyl)-benzenesulfonamide, reference compound]
- PLCγ2-HiBit %, percent luminescence at highest dose compared to control (DMSO) (PLCγ2-HiBit): 105%
- PLCy2-HiBit % @100 (PLCγ2-HiBit; Table 1): 105%
- Kinetic solubility [1]: 21 to 40 µM
- target engagement, signal against background (His-PLCγ2 protein): neither 1 or 2 indicated substantial evidence of target engagement

SMILES: Cc1cc(C)c(S(=O)(=O)Nc2ccccc2C(F)(F)F)c(C)c1 [Compound 2, o-3M3FBS, reference compound]
- PLCγ2-HiBit %, percent luminescence at highest dose compared to control (DMSO) (PLCγ2-HiBit): 102%
- PLCy2-HiBit % @100 (PLCγ2-HiBit; Table 1): 102%
- target engagement, signal against background (His-PLCγ2 protein): neither 1 or 2 indicated substantial evidence of target engagement

SMILES: Cc1cc(C)c(S(=O)(=O)NC2CCCNC2)c(C)c1 (stereo not shown) [Compound 11]
- PLCγ2-HiBit %, percent luminescence at highest dose compared to control (DMSO) (PLCγ2-HiBit): 64%
- HiBit only %, percent luminescence at highest dose with HiBit only compared to control (DMSO) (HiBit only): 93%

SMILES: O=S(=O)(Nc1ccc(Br)cc1F)c1cccs1 [Compound 8]
- Clint, intrinsic clearance [2]: 77.83 µL/min/mg
- PLCγ2-HiBit %, percent luminescence at highest dose compared to control (DMSO) (PLCγ2-HiBit): 66%
- PLCy2-HiBit % @100 (PLCγ2-HiBit; Table 1): 66%
- AC50 (PLCγ2-HiBit; Table 1, CETSA dose response, read-out: AC50): > 100 µM
- AC50 (PLCγ2-HiBit; Table 5, 8-point dose response from 100 μM, HMC3 cells, 45.9° C., read-out: AC50, concentration that induced a half-maximum loss of luminesce compared to control): > 100 µM
- HiBit only %, percent luminescence at highest dose with HiBit only compared to control (DMSO) (HiBit only): 44%
- HiBit only % @100 μM (HiBit only; Table 1, @100 μM): 44%
- fu, fraction unbound [3]: 0.0193
- Papp, MDCK permeability (MDCK): 95.0 ×10−^6 cm/s
- Kinetic solubility [1]: >100 µM
